Source: US20240148709A1, “METHODS OF TREATING EYE PAIN AND EYE DISORDERS” (Aisa Pharma, Inc., priority 2022, published 2024)
“Also recorded” adds a separate entry of the source. Marks after values point to notes of the source that are not given here.

Columns and labels:
participants with SSc-RP [1] = test: Raynaud's attack diary endpoints (frequency, duration, severity, pain, RCS), Phase 2a study Part A; assay type: in vivo, human
Protocol: Part A—double-blind, placebo-controlled, parallel-group, dose selection, will assess the safety and efficacy of two doses of cilnidipine (10 mg and 20 mg), alone and in combination with tadalafil. A total of 36 participants will be randomized to one of six prespecified treatment arms. Refer to FIG. 1 for treatment arms in Part A of the study. Dosing last for 12 (±2) days in which participants will self-administer daily doses of assigned treatment in the morning. Each participant will take one capsule and one tablet to blind the active therapy being received.
During screening, the Diary will collect the following data to confirm eligibility and serve as the baseline measure for efficacy endpoints should the participant be randomized: • Number of daily Raynaud's attacks • Duration of each attack • Symptoms of each attack, including numbness, pain, tingling, color changes • Severity of each attack (all symptoms of the attack to be considered including tingling, numbness, pain, color changes) • Location of participant during each attack (inside/outside) • Pain score of each attack-using 11-point Likert scale, a validated pain scale which can be used to record intensity of pain. • Daily RCS— a validated outcome measure used to assess the level of difficulty experienced due to RP each day.
The relevant metrics measured by this tool daily are: • Study medication • SSc-RP symptoms (Reporting an attack including duration of attack) • Severity of the attack considering all symptoms of the attack e.g. tingling, numbness, pain, color changes (VAS 0-10 cm scale) • Participant's location at the time of the attack (inside home/outside home) • Selecting symptoms experienced during the attack (tingling, numbness, pain, color changes, other) • Pain rating during the attack (11-point Likert scale) • The RCS based on how much difficulty participants had with Raynaud's today, how many attacks the participant had, and how long they lasted. Participants will also be asked to consider how much pain, numbness, or other symptoms the Raynaud's caused in fingers (including painful sores), and how much the Raynaud's alone affected the use of hands today (VAS 0-10 cm scale).
Percent change from baseline evaluation for frequency of weekly RP attacks will be the primary efficacy endpoint. Data collected in the last 7 days of each dosing period will be used for this analysis. Screening assessments will be used as baseline for the analysis of all periods. No multiple comparison adjustment will be used to control alpha for the multiple comparisons. Mixed effects model will be used for analysis of the primary endpoint according to the crossover design. Other efficacy endpoints of continuous variables will be analyzed using similar methodology. For nominal data, chi-square tests will be applied. Generalized Estimating Equations method will be used, as appropriate, for adjusting for potential confounding factors. In addition, the final analysis will assess whether in this study of severe Raynaud's disease participants, the minimally important difference, previously concluded of 14-15 points on the 100 point RCS scale has been achieved in the cilnidipine dose group. It also will record the percentage of participants achieving a PASS (34 point difference from baseline on a 0-100 VAS) in each treatment group.

[2] = given orally; cited from earlier work
Nav 1.7 sodium channel = Nav 1.7 sodium channel (Homo sapiens, UniProt Q15858); details: 20 mg dose of cilnidipine; cited from earlier work
Sequence of Nav 1.7 sodium channel (Q15858 whole entry): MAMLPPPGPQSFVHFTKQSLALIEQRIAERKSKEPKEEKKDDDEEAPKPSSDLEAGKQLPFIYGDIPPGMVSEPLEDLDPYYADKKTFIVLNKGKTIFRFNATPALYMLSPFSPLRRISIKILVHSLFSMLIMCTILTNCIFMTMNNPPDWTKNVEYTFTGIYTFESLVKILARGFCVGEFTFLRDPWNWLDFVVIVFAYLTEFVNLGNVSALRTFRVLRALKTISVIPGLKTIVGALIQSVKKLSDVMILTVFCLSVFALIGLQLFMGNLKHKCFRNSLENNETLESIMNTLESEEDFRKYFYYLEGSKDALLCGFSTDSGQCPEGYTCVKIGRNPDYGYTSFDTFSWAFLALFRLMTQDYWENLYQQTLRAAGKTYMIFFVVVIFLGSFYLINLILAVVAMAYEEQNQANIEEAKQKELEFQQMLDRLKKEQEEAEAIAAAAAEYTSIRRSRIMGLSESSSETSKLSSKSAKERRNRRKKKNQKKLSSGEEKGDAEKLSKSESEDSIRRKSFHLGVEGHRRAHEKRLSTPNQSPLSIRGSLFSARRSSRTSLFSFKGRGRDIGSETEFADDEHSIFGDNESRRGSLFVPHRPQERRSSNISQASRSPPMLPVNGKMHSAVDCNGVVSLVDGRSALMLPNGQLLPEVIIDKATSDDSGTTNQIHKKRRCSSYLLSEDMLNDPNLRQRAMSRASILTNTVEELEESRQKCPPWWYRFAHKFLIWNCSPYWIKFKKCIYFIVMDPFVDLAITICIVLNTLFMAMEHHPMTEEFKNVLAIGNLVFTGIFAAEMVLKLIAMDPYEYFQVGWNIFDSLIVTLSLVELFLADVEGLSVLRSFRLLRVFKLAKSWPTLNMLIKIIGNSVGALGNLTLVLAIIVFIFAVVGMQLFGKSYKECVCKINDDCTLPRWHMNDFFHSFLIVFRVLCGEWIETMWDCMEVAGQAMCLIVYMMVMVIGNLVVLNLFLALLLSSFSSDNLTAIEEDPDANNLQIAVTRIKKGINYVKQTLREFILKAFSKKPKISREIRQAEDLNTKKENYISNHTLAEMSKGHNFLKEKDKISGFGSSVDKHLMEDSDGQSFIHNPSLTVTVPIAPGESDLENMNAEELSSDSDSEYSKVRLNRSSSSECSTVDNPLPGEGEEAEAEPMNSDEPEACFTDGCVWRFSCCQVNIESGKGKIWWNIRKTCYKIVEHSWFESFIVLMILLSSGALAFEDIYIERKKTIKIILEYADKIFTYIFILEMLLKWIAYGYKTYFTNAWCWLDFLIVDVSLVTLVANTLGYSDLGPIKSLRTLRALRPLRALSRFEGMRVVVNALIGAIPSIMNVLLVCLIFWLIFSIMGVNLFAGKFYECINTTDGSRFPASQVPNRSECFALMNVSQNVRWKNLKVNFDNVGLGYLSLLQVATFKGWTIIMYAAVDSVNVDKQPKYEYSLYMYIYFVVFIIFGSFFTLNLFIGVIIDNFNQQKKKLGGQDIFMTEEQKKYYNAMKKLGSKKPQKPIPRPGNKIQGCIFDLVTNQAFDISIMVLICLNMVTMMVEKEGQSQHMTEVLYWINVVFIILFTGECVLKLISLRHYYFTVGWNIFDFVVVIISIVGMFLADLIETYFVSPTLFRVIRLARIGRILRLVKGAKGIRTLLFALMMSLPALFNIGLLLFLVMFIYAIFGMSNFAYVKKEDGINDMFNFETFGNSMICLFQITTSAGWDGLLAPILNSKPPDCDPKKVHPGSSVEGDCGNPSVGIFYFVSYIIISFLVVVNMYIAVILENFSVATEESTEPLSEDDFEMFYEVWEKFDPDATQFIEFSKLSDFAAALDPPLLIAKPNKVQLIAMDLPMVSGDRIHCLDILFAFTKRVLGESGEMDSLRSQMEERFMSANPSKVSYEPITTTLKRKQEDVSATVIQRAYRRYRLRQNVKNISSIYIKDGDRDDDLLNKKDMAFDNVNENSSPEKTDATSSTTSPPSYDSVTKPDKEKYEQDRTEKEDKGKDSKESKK

participants with SSc-RP [3] = test: Safety: adverse events and withdrawals, Phase 2a study Part A; assay type: in vivo; details: for overall adverse event rate: all patients who received any dose of cilnidipine (n=17)
Description: • Incidence of treatment emergent adverse events (AEs) and serious adverse events (SAEs), including clinically significant vital signs. For Part A safety will be assessed from the time of randomization until 7 days following the last protocol dose. For Part B, participants will be followed for 28 days from the last study dose. • Serious adverse events will be monitored by a DSMB (Part A) and Drug Safety Officer (Part B) on an ongoing basis throughout the study. • Adverse events will be coded using the MedDRA and summarized by SOC, PT, and treatment group.
Severity of AEs will be graded by the Investigator as one of: • Mild (Grade 1): A type of AE that is usually transient and may require only minimal treatment or therapeutic intervention.
Adverse events will be coded using the most current version of the MedDRA® Version 22.0 or higher. The analysis of AEs will be based on the concept of treatment emergent AEs. Treatment emergent AEs will be tabulated by treatment group and will include the number of participants for whom the event occurred, the severity, and relationship to study drug. Treatment emergent AEs (TEAEs) leading to discontinuation and SAEs with onset after the start of study drug will also be summarized. All AEs and SAEs (including those with onset or worsening before the start of study drug) through the end of the study will be listed.

[4] = oral dosing; cited from earlier work
[5] = 10 mg cilnidipine, healthy volunteers, single oral dose, cited from earlier work
[6] = cilnidipine 10 mg and/or tadalafil 5 mg arms
[7] = cilnidipine 20 mg arms (alone or + tadalafil 5 mg)

## CN1CC(=O)N2[C@H](c3ccc4c(c3)OCO4)c3[nH]c4ccccc4c3C[C@@H]2C1=O [Tadalafil, tadalafil]
Participants with SSc-RP [1]; [6]
  Average Pain Score Change From Baseline [Mean (SD)]: 0.37 (2.219)
  Average Pain Score Percent Change from Baseline [Mean (SD)]: 17.20 (64.838) %
  Average Pain Score [Mean (SD)] after treatment (Raynaud's pain): 5.84 (4.768)

## COCCOC(=O)C1=C(C)NC(C)=C(C(=O)OC/C=C/c2ccccc2)C1c1cccc([N+](=O)[O-])c1 (stereo not shown) [Cilnidipine, cilnidipine]
[2]
  protein binding in plasma: 98%
Participants with SSc-RP [1]; Cilnidipine 20 mg (n = 1)
  Subgroup Baseline RCS <3.5, % change: baseline −42%
Participants with SSc-RP [1]; Cilnidipine 20 mg (n = 2)
  Subgroup Baseline RCS >3.5-7.5, % change: baseline −43%
  Subgroup attack frequency, <10 baseline, % change: baseline −29%
  Subgroup attack frequency, >10 baseline, % change: baseline −50%
Participants with SSc-RP [1]; Cilnidipine 20 mg (n = 3)
  Average Raynaud's Pain, % change: 12%
  Daily RCS Change: −28%
  Duration, % change: −20%
  Mean % reduction in RCS: 27.9%
  Mean % reduction in duration: 20.0%
  Mean % reduction in pain: −11.8%
  Mean % reduction in severity: 35.5%
  Mean % reduction of weekly attacks: 43%
  Severity, % change: −36%
  Weekly attack frequency, % change: −43%
  Weekly attack frequency, % change, if baseline RCS <3.5: −42%
Participants with SSc-RP [1]; Pooled Cilnidipine (n = 1)
  Subgroup Baseline RCS 3.5-7.5, % change: baseline −86%
Participants with SSc-RP [1]; Pooled Cilnidipine (n = 2)
  Subgroup attack frequency, <10 baseline, % change: baseline −55%
  Subgroup attack frequency, >10 baseline, % change: baseline −28%
Participants with SSc-RP [1]; Pooled Cilnidipine (n = 3)
  Daily RCS Change: 12% (n = 3)
  Subgroup Baseline RCS <3.5, % change: baseline −27%
Participants with SSc-RP [1]; Pooled Cilnidipine (n = 7)
  Average Raynaud's Pain, % change: −27%
  Duration, % change: 20%
  Severity, % change: −16%
  Weekly attack frequency, % change: −41%
  Weekly attack frequency, % change, if baseline RCS <3.5: −27%
Participants with SSc-RP [1]; both doses (10 and 20 mg)
  DSMB finding on Raynaud's endpoints: effective at reducing Raynaud's endpoints
Participants with SSc-RP [1]; [6]
  Average Pain Score Change From Baseline [Mean (SD)]: 0.47 (0.558)
  Average Pain Score Percent Change from Baseline [Mean (SD)]: 11.76 (27.478)† %
  Average Pain Score [Mean (SD)] after treatment (Raynaud's pain): 2.82 (2.268)
Participants with SSc-RP [1]; [7]
  Average Pain Score Change From Baseline [Mean (SD)]: −0.47 (2.025)
  Average Pain Score Percent Change from Baseline [Mean (SD)]: −26.89 (89.725)* %
  Average Pain Score [Mean (SD)] after treatment (Raynaud's pain): 1.28 (1.993)
Nav 1.7 sodium channel
  inhibition of Nav 1.7 compared to an 1800 mg dose of gabapentin: > 6 fold
Participants with SSc-RP [3]; 10 mg and 20 mg, alone or in combination with tadalafil
  tolerability: well tolerated; also recorded: good tolerability
Participants with SSc-RP [3]; Cilnidipine 20 mg column (n = 8)
  Safety: withdrawals: 1 withdrawal
Participants with SSc-RP [3]; Cilnidipine 20 mg, HA-mild (n = 8)
  Safety: number of AE: 1AE (HA-mild;
Participants with SSc-RP [3]; Pooled Cilnidipine, in combo with T (n = 9)
  Safety: number of AE: 1AE (in combo
Participants with SSc-RP [3]
  overall adverse event rate: 17%
Participants with SSc-RP [3]; listed as Profervia
  overall adverse event rate: 17% adverse
Participants with SSc-RP [3]; any dose of cilnidipine (n=17)
  treatment discontinuations due to intolerance: no treatment discontinuations due to intolerance
Participants with SSc-RP [3]; patients treated with cilnidipine
  severity grade of adverse events: only Grade 1 Adverse Events (AEs) were reported; also recorded: only mild (Grade 1) adverse events occurred
[4]
  time to achieve maximal plasma concentration (Tmax): ≤ 2 h
[5]; mean (±SD)
  AUCinf: 41.2 (±20.4) ng*h/mL
  AUClast: 37.0 (±17.9) ng*hr/mL
  CL/F: 304.7(±147.5) L/hr
  Cmax: 8.9 (±4.2) ng/mL
  T1/2: 7.5(±1.0) hr
[5]; median (minimum-maximum)
  Tmax: 2 (0.5-5) hr
